The source of these data is patent US8378070B2, “Peptides for the regulation of neurotransmitter sequestration and release” (Ramot at Tel-Aviv University Ltd., priority 2007, dated 2013).

One data set concerns DJ-1 mRNA. Briefly: Real time quantitative PCR of DJ-1 mRNA. In kind it is cell-based, human. As to the method: Cellular transfection and treatment: SH-SY5Y human neuroblastoma cells, obtained from the ATCC (Rockville, USA), were stably transfected with pIRES2-acGFP1 plasmid (BD biosciences, Clontech) containing wild type DJ-1. […] As controls, naïve neuroblastoma cells were used as well as cells stably transfected with the same vectors. Transfections were performed using the lipofectamine 2000 reagent (Invitrogen). Stable transfections were achieved by geneticin treatment and were verified by measuring DJ-1 mRNA and protein levels using real-time PCR and Western blotting. […] RNA isolation and Real time quantitative PCR: Total RNA was isolated from cultured neuroblastoma cells using a commercial reagent TriReagentTM (Sigma). The amount and quality of RNA was determined spectrophotometrically using the ND-1000 spectrophotometer (NanoDrop). First-strand cDNA synthesis was carried out from […] of the total RNA using random primer (Invitrogen) and RT-superscript II (Invitrogen) reverse transcriptase. Real-time quantitative reverse transcription polymerase chain reaction (PCR) of the desired genes was performed in an ABI Prism 7700 sequence detection system (Applied biosystems) using Sybr green PCR master mix (Applied biosystems) and the following primers: GAPDH (used as 'housekeeping' gene) sense: […] NO: 7), GAPDH antisense: […] NO: 8); DJ-1 sense: […] ID NO: 9) DJ-1 antisense: […] ID NO:10) VMAT2 sense: […] ID NO: 11) VMAT2 antisense: […] NO: 12). Real time quantitative PCR (qPCR) was performed using AbsoluteTM QPCR SYBR® Green ROX Mix, in triplicates. Quantitative calculations of the gene of interest versus GAPDH were done using the ddCT method.

A further data set relates to DJ-1 protein. Briefly: Western blotting of DJ-1 protein in neuroblastoma cells. Type of data set: cell-based, human. The method, then:
Cellular transfection and treatment: SH-SY5Y human neuroblastoma cells, obtained from the ATCC (Rockville, USA), were stably transfected with pIRES2-acGFP1 plasmid (BD biosciences, Clontech) containing wild type DJ-1. […] As controls, naïve neuroblastoma cells were used as well as cells stably transfected with the same vectors. Transfections were performed using the lipofectamine 2000 reagent (Invitrogen). Stable transfections were achieved by geneticin treatment and were verified by measuring DJ-1 mRNA and protein levels using real-time PCR and Western blotting. […] 8, 1987-1995 (2006)].
(Immunoblotting shows a protein as a band on a membrane.)

The next data set concerns striatum. Briefly: In vivo 6-hydroxydopamine hemiparkinsonian mouse model, striatal Western blotting. The conditions noted are these: mice. The method, then: In vivo 6-hydroxydopamine hemiparkinsonian mouse model: Eight-week-old male C57BL/6 mice (Harlan, Israel; 22-28 g) were used for 6-hydroxydopamine hemiparkinsonian mouse model experiments. All animals were housed in standard conditions, in a constant temperature (22±1° C.), relative humidity (30%), 12-h light: 12-h dark cycle, with free access to food and water. Surgical procedures were performed under the supervision of the Animal Care Committee at the Rabin Medical Center and at Tel Aviv University, Tel Aviv, Israel. Mice received a unilateral, right intrastriatal injection of […] 6-hydroxydopamine hydrobromide (Sigma, Israel) using a stereotaxic surgical procedure. Injections were targeted to the central striatum using the following coordinates: 0.5 mm anterior to bregma, 2.0 mm lateral to bregma, and 2.5 mm deep to the skull surface. Treatments were administered in a volume of 2.0 μL at a rate of 0.5 μL/min. 24 hours after 6-hydroxydopamine lesioning, striatal tissue was collected from both the injected and intact sides for DJ-1, VMAT2 and TH analysis. For analysis of acute 6-hydroxydopamine effects on phosphokinases striatal tissue was excised after 30 and 45 minutes of 6-hydroxydopamine injection.

For a further data set, the target named is T1, VMAT2 (Homo sapiens, UniProt Q05940).
T1 construct: endogenous in cells; host or cells: SH-SY5Y human neuroblastoma cells (naive, stably transfected with wild type DJ-1, or with siRNA for DJ-1)
Nature of the data set: KCl-induced [3H]dopamine release. Type of data set: cell-based. The method, then: KCl-induced dopamine release: Cells were plated on poly-D-lysin-coated 24-well plates. Cells were rinsed with assay buffer (containing Tris 4 mM, HEPES 6.25 mM, NaCl 120 mM, KCl 5 mM, CaCl2 1.2 mM, MgSO4 1.2 mM, D-glucose 5.6 mM and ascorbic acid 0.5 mM) and were then incubated with 0.5 uCi/ml [3H]Dopamine (Amersham Biosciences) for 20 minutes at 37° C. To measure stimulation-induced [3H]Dopamine release, [3H]Dopamine-loaded cells were rinsed extensively with ice cold buffer, and were treated with 60 mM KCl for 20 minutes at 37° C. and extracellular [3H]Dopamine was measured. Inhibition of VMAT2 was done using dihydrotetrabenazine (0-1 mM). All samples were analyzed with Packard liquid scintillation counter. Experiments were conducted in triplicates and repeated three times.

The test system of data set [1] is SH-SY5Y human neuroblastoma cells. Nature of the data set: MTT cell viability assay. In kind it is cell-based. As to the method: (§1) Cellular transfection and treatment: SH-SY5Y human neuroblastoma cells, obtained from the ATCC (Rockville, USA), were stably transfected with pIRES2-acGFP1 plasmid (BD biosciences, Clontech) containing wild type DJ-1. Decreased expression of DJ-1 was achieved by stable transfection with pSilencer2.1-U6 plasmid (Ambion) containing siRNA for DJ-1. As controls, naïve neuroblastoma cells were used as well as cells stably transfected with the same vectors. Transfections were performed using the lipofectamine 2000 reagent (Invitrogen). Stable transfections were achieved by geneticin treatment and were verified by measuring DJ-1 mRNA and protein levels using real-time PCR and Western blotting.
Cell viability: Cell viability was determined by the MTT (3-(4,5-dimethylthiazole-2-yl)-2,5-diphenyltetrazolium bromide, Sigma) reduction assay. Viability after exposure to increasing dopamine levels was analyzed by adding MIT solution to each well followed by incubation at 37° C. for 3 hours. Absorbance was determined at 564 nm in a microplate reader. Cell viability was evaluated in triplicate for each treatment. All experiments were repeated at least 3 times.
(Formazan colour is commonly taken as a measure of viable cells.)

Data set [2] shares this test system. Briefly: Intracellular reactive oxygen species (DCF assay). In kind it is cell-based. The method, then: as §1
Measurement of intracellular reactive oxygen species (ROS): The generation of ROS, after exposure to increasing dopamine concentrations, was measured using H2DCFDA (Sigma), which is incorporated into the cells and cleaved into fluorescent DCF in the presence of ROS. 10 μM H2DCFDA was added to the cell suspension, and the cells were incubated in the dark at 37° C. for 10 minutes. DCF fluorescence was measured by FLUOstar spectrofluorometer microplate reader at 520 nm. The generation of ROS was quantitatively assayed by the increase in DCF fluorescence and expressed as percentage of control. Each experiment was repeated at least 3 times in triplicates.

The test system of a further data set is VMAT2 mRNA. Nature of the data set: Real time quantitative PCR of VMAT2 mRNA. Type of data set: cell-based, human. As to the method: Cellular transfection and treatment: SH-SY5Y human neuroblastoma cells, obtained from the ATCC (Rockville, USA), were stably transfected with pIRES2-acGFP1 plasmid (BD biosciences, Clontech) containing wild type DJ-1. […] As controls, naïve neuroblastoma cells were used as well as cells stably transfected with the same vectors. Transfections were performed using the lipofectamine 2000 reagent (Invitrogen). Stable transfections were achieved by geneticin treatment and were verified by measuring DJ-1 mRNA and protein levels using real-time PCR and Western blotting. […] RNA isolation and Real time quantitative PCR: Total RNA was isolated from cultured neuroblastoma cells using a commercial reagent TriReagentTM (Sigma). The amount and quality of RNA was determined spectrophotometrically using the ND-1000 spectrophotometer (NanoDrop). […] Real-time quantitative reverse transcription polymerase chain reaction (PCR) of the desired genes was performed in an ABI Prism 7700 sequence detection system (Applied biosystems) using Sybr green PCR master mix (Applied biosystems) and the following primers: GAPDH (used as 'housekeeping' gene) sense: […] […] Real time quantitative PCR (qPCR) was performed using AbsoluteTM QPCR SYBR® Green ROX Mix, in triplicates. Quantitative calculations of the gene of interest versus GAPDH were done using the ddCT method.

A further data set relates to ERK 1,2. The method, then: Cells were treated with dopamine (0-500 uM; Sigma. Israel), N-acetylcysteine (NAC 5 mM; Sigma), and PD-98059 (30 uM; Calbiochem, Rosh Haayin, Israel).
Protein extraction and Western blotting: Protein extraction and Western blotting were done as previously described [Lev, N., et al Antioxid. redox signal. 8, 1987-1995 (2006)]. The membranes were probed with rabbit anti-DJ 1 antibody (1:1000; Chemicon Laboratories), mouse anti-VMAT2 (1:100; Chemicon Laboratories), and rabbit anti emerin (1:5000; Santa Cruz), followed by horseradish peroxidase conjugated secondary antibody (1:10000; Sigma) and developed with the Super Signal West Pico Chemiluminescent substrate (Pierce Biotechnology). Densitometry of the specific protein bands was preformed by VersaDoc® imaging system and Quantity One® software (BioRad).
Immunocytochemistry: Cells were fixed with 4% paraformaldehyde and permeabilized with 0.5% Triton X-100 and were then incubated in a blocking solution followed by overnight incubation with rabbit anti-VMAT2 (1:100; Chemicon Laboratories), at 4° C. followed by incubation with alexa-568 conjugated goat anti rabbit antibodies (1:1000; Molecular probes). Nuclei were counterstained by 4′,6-Diamidino-2-phenylindole dihydrochloride (DAPI, Sigma).

The test system of a further data set is VMAT2 promotor. The note with it: after exposure to 50 μM dopamine.
Data set [3] deals with tyrosine hydroxylase (TH). Briefly: Tyrosine hydroxylase mRNA (real time PCR) and ChIP of TH promotor. In kind it is cell-based, human. The conditions noted are these: DJ-1 overexpressing cells, GAPDH reference. The method, then:
RNA isolation and Real time quantitative PCR: Total RNA was isolated from cultured neuroblastoma cells using a commercial reagent TriReagent™ (Sigma). The amount and quality of RNA was determined spectrophotometrically using the ND-1000 spectrophotometer (NanoDrop). First-strand cDNA synthesis was carried out from […] of the total RNA using random primer (Invitrogen) and RT-superscript II (Invitrogen) reverse transcriptase. Real-time quantitative reverse transcription polymerase chain reaction (PCR) of the desired genes was performed in an ABI Prism 7700 sequence detection system (Applied biosystems) using Sybr green PCR master mix (Applied biosystems) and the following primers: GAPDH (used as ‘housekeeping’ gene) sense: CGACAGTCAGCCGCATCTT (SEQ ID NO: 7), GAPDH antisense: […] (SEQ ID NO: 8); DJ-1 sense: […], (SEQ ID NO: 9) DJ-1 antisense: […], (SEQ ID NO:10) VMAT2 sense: […], (SEQ ID NO: 11) VMAT2 antisense: […] (SEQ ID NO: 12). Real time quantitative PCR (qPCR) was performed using Absolute™ QPCR SYBR® Green ROX Mix, in triplicates. Quantitative calculations of the gene of interest versus GAPDH were done using the ddCT method.
Background: Real-time PCR tracks product formation cycle by cycle.

[4] abbreviates: PD98059 30 uM, inhibition of ERK1,2 phosphorylation.

T1 sequence (Q05940 whole entry): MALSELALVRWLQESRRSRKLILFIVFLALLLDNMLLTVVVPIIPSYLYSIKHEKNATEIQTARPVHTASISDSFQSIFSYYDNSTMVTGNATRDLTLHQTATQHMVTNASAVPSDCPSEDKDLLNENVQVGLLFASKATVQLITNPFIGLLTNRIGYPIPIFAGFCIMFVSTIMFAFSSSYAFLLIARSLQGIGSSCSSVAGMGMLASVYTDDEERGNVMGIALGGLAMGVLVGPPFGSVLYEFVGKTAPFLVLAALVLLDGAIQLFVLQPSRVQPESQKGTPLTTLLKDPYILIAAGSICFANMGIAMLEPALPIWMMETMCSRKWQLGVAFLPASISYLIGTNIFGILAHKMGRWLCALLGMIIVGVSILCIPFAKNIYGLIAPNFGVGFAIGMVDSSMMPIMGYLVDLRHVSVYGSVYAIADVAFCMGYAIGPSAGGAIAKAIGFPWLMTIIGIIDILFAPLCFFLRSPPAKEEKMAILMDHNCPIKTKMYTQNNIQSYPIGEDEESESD
Experimental for VMAT2 promotor: Chromatin immunoprecipitation: ChIP assays using cultured neuroblastoma cells were performed following Upstate instructions. After protein-DNA cross-linking by paraformaldehyde, cells were harvested and the pellets were resuspended in lysis-buffer and sonicated on ice (5 sets of 15-s pulse at 40% maximal power). After pre-clearing with Protein G/A-agarose, aliquots were incubated with DJ-1 antibodies or non-specific antibodies (as control) overnight at 4° C. with rotation. Immunopercipitated DNA was used as templates for the following primers, designed for the human VMAT promotor: sense: [sequence]

Consider `COc1cccc(-c2cc(=O)c3ccccc3o2)c1N` [PD98059], for which, in the data set with DJ-1 mRNA (setting [4]), the “Effect on dopamine-induced DJ-1 mRNA upregulation” value is on record as “inhibited DJ-1 mRNA upregulation”. Further, the “Effect on dopamine-induced DJ-1 protein upregulation (Western blot)” value with DJ-1 protein (setting [4]) is “abolished DJ-1 protein upregulation”.

For the molecule `Br.NCCc1cc(O)c(O)cc1O` [6-hydroxydopamine, 6-hydroxydopamine hydrobromide], the “ERK1,2 phosphorylation in striatum” value with striatum (acute exposure, intrastriatal injection, 30 and 45 minutes) is “increased phosphorylation of ERK1, 2”. Besides, the “DJ-1 and VMAT-2 protein expression in lesioned vs unlesioned striatum” value with striatum (unilateral intrastriatal injection, 24 hours) was “increased expression of DJ-1 and of VMAT-2 proteins”.

In the case of `CC(=O)N[C@@H](CS)C(=O)O` [NAC, N-acetylcysteine], the “Effect on dopamine-induced DJ-1 mRNA upregulation” value with DJ-1 mRNA (pre-treatment with NAC 5 mM, naïve neuroblastoma) is “abolished DJ-1 mRNA upregulation”.

Take `COc1cc2c(cc1OC)[C@H]1C[C@@H](O)[C@H](CC(C)C)CN1CC2` [dihydrotetrabenazine]: the “KCl induced dopamine release” value on VMAT2 (dihydrotetrabenazine 0-1 mM, 60 mM KCl 20 minutes) was “abolished”.

On to `NCCc1ccc(O)c(O)c1` [dopamine], for which, in [1] (dopamine 0-500 uM, 24 hours, neuroblastoma cells), the “Cell viability (MTT) after dopamine exposure” value is “dose dependent cell death”. In addition, the “Intracellular ROS (DCF assay) after dopamine exposure” value in data set [2] (increasing dopamine concentrations, neuroblastoma cells) is “increased intracellular ROS”. In the data set with DJ-1 mRNA (50 μM dopamine, within 1 hour, naïve neuroblastoma cells), the “Increase in DJ-1 mRNA” value was found to be 2.5 fold. In the data set with VMAT2 mRNA (50 μM dopamine, after 7 hours, naïve neuroblastoma cells), the “VMAT2 mRNA elevation of basal level” value was found to be 60 fold. For the same molecule, the “DJ-1 protein after dopamine exposure (Western blot)” value with DJ-1 protein (naïve neuroblastoma cells) was “Increased DJ-1 protein”. The “Time to phosphorylation of ERK 1,2 after dopamine exposure” value in the data set on ERK 1,2 (naive neuroblastoma, Western blotting and immunocytochemistry) is 20 to 60 min. Besides, in the data set with ERK 1,2 (naïve neuroblastoma cells), the “Phosphorylation of ERK 1 and 2 after dopamine exposure” value is given as “rapid phosphorylation”. In addition, the “VMAT2 promotor precipitated by anti-DJ-1 antibodies (ChIP)” value with VMAT2 promotor was “higher amounts of VMAT2 promotor were precipitated”.

B1: DJ-1: wild type DJ-1 overexpressed by stable transfection with pIRES2-acGFP1 plasmid; GenBank AB073864 (protein, listed as Homo sapiens)
chain: MASKRALVILAKGAEEMETVIPVDVMRRAGIKVTVAGLAGKDPVQCSRDVVICPDASLEDAKKEGPYDVVVLPGGNLGAQNLSESAAVKEILKEQENRKGLIAAICAGPTALLAHEIGCGSKVTTHPLAKDKMMNGGHYTYSENRVEKDGLILTSRGPGTSFEFALAIVEALNGKEVAAQVKAPLVLKD
Regarding B1, the “Protection against rotenone and 6-hydroxydopamine” value in [1] (DJ-1 overexpressing neuroblastoma cells) is “protects against dopaminergic toxins”. Further, in data set [1] (dopamine 0-500 uM, 24 hours, transfected SH-SY5Y cells), the “Vulnerability to dopamine toxicity (MTT viability)” value is on record as “conferred resistance to dopamine”. In data set [2] (transfected SH-SY5Y cells vs naïve neuroblastoma), the “Dopamine-induced intracellular ROS (DCF assay)” value was “decreased intracellular ROS”. For the same molecule, in the data set with DJ-1 mRNA (stable transfection with wild type DJ-1), the “DJ-1 mRNA and protein levels in overexpressing cells” value is reported as “over 3 fold”. The “VMAT2 expression level compared to control (mRNA)” value in the data set on VMAT2 mRNA (stably transfected SH-SY5Y cells) is listed as “over 500 fold”. Besides, the “KCl-induced dopamine release from synaptic vesicles compared to naïve neuroblastoma cells” value with VMAT2 (transfected SH-SY5Y cells) is recorded as “released more dopamine”. Besides, the “TH mRNA levels (real time PCR)” value in data set [3] is on record as “upregulation of TH mRNA”.
